The melting point is the temperature, or range, at which the solid turns liquid.

The source of these data is patent US20180334447A1, “2,3,4,5-TETRAHYDROPYRIDIN-6-AMINE DERIVATIVES” (JANSSEN PHARMACEUTICA NV, priority 2015, published 2018).

Data set [1] relates to Abeta 1-42 produced and secreted into the medium of human neuroblastoma SKNBE2 cells. As to the kind of experiment: Cellular αLisa assay in SKNBE2 cells, Abeta 42. It is filed as cell-based. The settings on record: Homo sapiens, SKNBE2, 18 h, SKNBE2 cells expressing hAPP695, incubated for 18 hours; read-out: Cellular αLisa assay in SKNBE2 cells Abeta 42 pIC50 (converted). As to the method:
In two αLisa assays the levels of Abeta 1-42 produced and secreted into the medium of human neuroblastoma SKNBE2 cells are quantified. The assay is based on the human neuroblastoma SKNBE2 expressing the wild type Amyloid Precursor Protein (hAPP695). The compounds are diluted and added to these cells, incubated for 18 hours and then measurements of Abeta 1-42 are taken. Abeta 1-42 are measured by sandwich αLisa. αLisa is a sandwich assay using biotinylated antibody AbN/25 attached to streptavidin coated beads and antibody cAb42/26 conjugated acceptor beads for the detection of Abeta 1-42 respectively. In the presence of Abeta 1-42, the beads come into close proximity. The excitation of the donor beads provokes the release of singlet oxygen molecules that trigger a cascade of energy transfer in the acceptor beads, resulting in light emission. Light emission is measured after 1 hour incubation (excitation at […] and emission at 615 nm).
(§1) A best-fit curve is fitted by a minimum sum of squares method to the plot of % Controlmin versus compound concentration. From this an IC50 value (inhibitory concentration causing 50% inhibition of activity) can be obtained.

Data set [2] deals with T1, recombinant BACE1 protein (Homo sapiens, UniProt P56817).
T1 construct: recombinant BACE1 protein in a final concentration of 1 μg/ml
T1 sequence (P56817 46-501): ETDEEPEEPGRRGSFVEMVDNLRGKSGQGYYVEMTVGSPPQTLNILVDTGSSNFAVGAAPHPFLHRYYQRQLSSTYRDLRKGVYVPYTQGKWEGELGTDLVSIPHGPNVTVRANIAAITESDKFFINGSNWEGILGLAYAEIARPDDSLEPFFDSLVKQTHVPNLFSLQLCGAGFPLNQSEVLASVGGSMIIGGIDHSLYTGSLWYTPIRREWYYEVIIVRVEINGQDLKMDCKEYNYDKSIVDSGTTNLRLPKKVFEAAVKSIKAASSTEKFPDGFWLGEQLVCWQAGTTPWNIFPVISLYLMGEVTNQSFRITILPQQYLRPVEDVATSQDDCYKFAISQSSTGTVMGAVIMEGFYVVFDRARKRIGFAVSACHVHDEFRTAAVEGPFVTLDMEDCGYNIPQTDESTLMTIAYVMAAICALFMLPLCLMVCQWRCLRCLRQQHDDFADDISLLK
Nature of the data set: BACE1 biochemical FRET based assay - Method 1. The settings on record: BACE1, 120 minutes at room temperature, pH 5.0; read-out: Biochemical FRET based assay - Method 1 pIC50 (converted).
Source text: (§2) This assay is a Fluorescence Resonance Energy Transfer Assay (FRET) based assay. The substrate for this assay is an APP derived 13 amino acids peptide that contains the ‘Swedish’ Lys-Met/Asn-Leu mutation of the amyloid precursor protein (APP) beta-secretase cleavage site. This substrate also contains two fluorophores: (7-methoxycoumarin-4-yl) acetic acid (Mca) is a fluorescent donor with excitation wavelength at 320 nm and emission at 405 nm and 2,4-Dinitrophenyl (Dnp) is a proprietary quencher acceptor. […] Upon cleavage by BACE1, the fluorophore Mca is separated from the quenching group Dnp, restoring the full fluorescence yield of the donor. The increase in fluorescence is linearly related to the rate of proteolysis.
Briefly in a 384-well format recombinant BACE1 protein in a final concentration of 1 μg/ml is incubated for 120 minutes at room temperature with 10 μm substrate in incubation buffer (40 mM Citrate buffer pH 5.0, 0.04% PEG, 4% DMSO) in the absence or presence of compound. Next the amount of proteolysis is directly measured by fluorescence measurement at T=0 and T=120 (excitation at 320 nm and emission at 405 nm). Results are expressed in RFU (Relative Fluorescence Units), as difference between T120 and T0.
as §1

The test system of data set [3] is Abeta 1-37, Abeta 1-38, Abeta 1-40 and Abeta 1-42 in CSF. As to the kind of experiment: Pharmacology in the Beagle dog: beta-amyloid profile in cerebrospinal fluid (CSF) after a single dose. The format is in vivo. As to the method: Test compounds were tested to evaluate the effect on the beta-amyloid profile in cerebrospinal fluid (CSF) of dogs after a single dose, in combination with pharmacokinetic (PK) follow up and limited safety evaluation.
For each of compound 20, 21, 22 or 41, four beagle dogs (2 males, 2 females) were dosed with vehicle (1 ml/kg of an aqueous solution of 20% cyclodextrin) and 12 beagle dogs (2 males and 2 females per dosage group) were dosed with test compounds as follows:
In the case of compounds 39, 33 and 31, two beagle dogs (1 male, 1 female) were dosed with vehicle (1 ml/kg of an aqueous solution of 20% cyclodextrin) and 4 beagle dogs (2 males and 2 females) were dosed with test compound […] (0.31 mg/kg in 0.31 mg/ml of an aqueous 20% cyclodextrin solution) on an empty stomach.
Eight hours after dosing the animals got access to their regular meal for 30 minutes. Blood was taken for PK follow up (0.5, 1, 2, 4, 8, 25 and 49 hours) and serum samples for biochemistry were taken before and at 8 and 25 h after dosing. The CSF samples were used for measurement of Abeta 1-37, Abeta 1-38, Abeta 1-40 and Abeta 1-42.

The target of data set [4] is T2, recombinant BACE2 protein (Homo sapiens, UniProt Q9Y5Z0).
T2 construct: recombinant BACE2 protein in a final concentration of 0.4 μg/ml
T2 sequence (Q9Y5Z0 63-518): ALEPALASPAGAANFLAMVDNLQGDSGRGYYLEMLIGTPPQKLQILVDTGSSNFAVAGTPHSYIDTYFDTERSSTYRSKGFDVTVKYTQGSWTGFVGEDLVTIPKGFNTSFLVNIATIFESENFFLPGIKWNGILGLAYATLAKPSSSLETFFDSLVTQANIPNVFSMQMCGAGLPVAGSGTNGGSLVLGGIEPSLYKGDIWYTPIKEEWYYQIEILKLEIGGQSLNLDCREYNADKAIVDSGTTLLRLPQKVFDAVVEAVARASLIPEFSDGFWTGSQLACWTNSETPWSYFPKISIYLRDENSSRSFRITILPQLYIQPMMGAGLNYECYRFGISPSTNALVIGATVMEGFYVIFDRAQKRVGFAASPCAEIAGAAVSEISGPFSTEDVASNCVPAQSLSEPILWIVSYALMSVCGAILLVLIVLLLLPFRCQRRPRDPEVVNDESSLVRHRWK
As to the kind of experiment: BACE2 biochemical FRET based assay. To be noted: BACE2, 450 minutes at room temperature, pH 5.0; read-out: Biochemical FRET based assay pIC50 (converted).
Source text: as §2, with “assay” for “assay is an APP derived 13 amino acids peptide that”, “the beta-secretase,” for “BACE1,”
Briefly in a 384-well format recombinant BACE2 protein in a final concentration of 0.4 μg/ml is incubated for 450 minutes at room temperature with 10 μM substrate in incubation buffer (50 mM Citrate buffer pH 5.0, 0.05% PEG, no DMSO) in the absence or presence of compound. Next the amount of proteolysis is directly measured by fluorescence measurement at T=0 and T=450 (excitation at 320 nm and emission at 405 nm). Results are expressed in RFU (Relative Fluorescence Units), as difference between T450 and T0.
as §1

In data set [5] the test system is Abetatotal in human neuroblastoma SKNBE2 cells. As to the kind of experiment: Cellular αLisa assay in SKNBE2 cells, Abetatotal. To be noted: Homo sapiens, SKNBE2, 18 h, SKNBE2 cells expressing hAPP695, incubated for 18 hours; read-out: Cellular αLisa assay in SKNBE2 cells Abetatotal pIC50 (converted). It is filed as cell-based.
Where [6] appears, read: Canis lupus familiaris, single dose 0.31 mg/kg, 8 h post dosing, read-out: % Decrease in Abeta 1-42 at 8 h post dosing compared to own baseline.

`COc1cnc(C(=O)Nc2ccc(F)c([C@]3(CF)CC[C@@](C)(S(C)(=O)=O)C(N)=N3)c2)cn1` [Compound 2] gave a melting point of 122.96 °C. For the same compound, the IC50 in data set [1] is 1.48 nM. In data set [2], the IC50 is 2.29 nM. Further, in data set [3] (setting [6]), the inhibition in vivo at 0.31 mg/kg amounted to 56%. In data set [4], the IC50 is 13.8 nM.
In turn, `COc1cnc(C(=O)Nc2ccc(F)c([C@]3(C)CC[C@](C)(S(C)(=O)=O)C(N)=N3)c2)cn1` [Compound 9] displayed a melting point of 214.97 °C. In data set [1], the IC50 is 28.8 nM. Further, the IC50 in data set [2] is 77.6 nM. The IC50 in data set [4] is 513 nM.
`C[C@@]1(S(C)(=O)=O)CC[C@@](CF)(c2cc(NC(=O)c3ccc(F)cn3)ccc2F)N=C1N` [Compound 20]: the IC50 was 2.51 nM in data set [1], 3.02 nM in data set [2], 3.02 nM in data set [4] and 2.57 nM in data set [5]. In data set [3] (Canis lupus familiaris, single dose 0.16 mg/kg, 8 h post dosing, read-out: % Decrease in Abeta 1-42 at 8 h post dosing compared to own baseline), the inhibition in vivo at 0.16 mg/kg came to 54%. The inhibition in vivo at 0.63 mg/kg in data set [3] (Canis lupus familiaris, single dose 0.63 mg/kg, 8 h post dosing, read-out: % Decrease in Abeta 1-42 at 8 h post dosing compared to own baseline) was found to be 75%. For the same compound, in data set [3] (Canis lupus familiaris, single dose 1.25 mg/kg, 8 h post dosing, read-out: % Decrease in Abeta 1-42 at 8 h post dosing compared to own baseline), the inhibition in vivo at 1.25 mg/kg is 77%. For the same compound, the “% Decrease in Abeta 1-42 at 24 h^(a) or 25 h^(b) post dosing compared to own baseline” value in data set [3] (single dose 0.16 mg/kg, 24 h post dosing (a)) was 44^(a) %. Besides, the “% Decrease in Abeta 1-42 at 49 h post dosing compared to own baseline” value in data set [3] (single dose 0.63 mg/kg) is recorded as 29%; in data set [3] (single dose 1.25 mg/kg), 65%.
Consider `CCS(=O)(=O)C1(C)CCC(CF)(c2cc(NC(=O)c3ccc(F)cn3)ccc2F)N=C1N` (centres unmarked) [Compound 31], for which the IC50 in data set [1] was 1.91 nM; in data set [2], 1.7 nM; in data set [4], 2.63 nM; in data set [5], 1.78 nM. The inhibition in vivo at 0.31 mg/kg in data set [3] (setting [6]) was determined as 31%.
Turning to `CC1(S(C)(=O)=O)CCC(CF)(c2cc(NC(=O)c3cnc(OC(F)F)cn3)ccc2F)N=C1N` (centres unmarked) [Compound 32], the IC50 in data set [1] was 0.398 nM; in data set [2], 1.05 nM; in data set [4], 11.5 nM; in data set [5] it was 0.309 nM. Besides, in data set [3] (setting [6]), the inhibition in vivo at 0.31 mg/kg is 76%.
Turning to `CC1(S(C)(=O)=O)CCC(CF)(c2cc(NC(=O)c3cnc(OCC(F)(F)F)cn3)ccc2F)N=C1N` (centres unmarked) [Compound 39], the IC50 was 1.38 nM in data set [1], 1.29 nM in data set [2], 25.1 nM in data set [4] and 2.14 nM in data set [5]. Moreover, in data set [3] (setting [6]), the inhibition in vivo at 0.31 mg/kg worked out at 53%. Further, in data set [3] (single dose 0.31 mg/kg, 25 h post dosing (b)), the “% Decrease in Abeta 1-42 at 24 h^(a) or 25 h^(b) post dosing compared to own baseline” value was 44^(b) %.
